Values quoted from earlier work in PMC9420858, “Synthesis, bioactivity, and molecular docking of novel arylpiperazine derivatives as potential AR antagonists” (Frontiers in Chemistry, 2022).

Assays:
[1] = system: LNCaP cells; conditions: printed without SD, ref Banday et al., 2014, read-out: LNCaP IC50 (control compound finasteride); cited from earlier work
[2] = system: PC-3 cells; conditions: printed without SD, ref Banday et al., 2014, read-out: PC-3 IC50 (control compound finasteride); cited from earlier work

## CC(C)(C)NC(=O)[C@H]1CC[C@H]2[C@@H]3CC[C@H]4NC(=O)C=C[C@]4(C)[C@H]3CC[C@]12C [Finasteride]
[1]
  IC50: 13.5 µM
[2]
  IC50: 17.8 µM
